Laboratory results from patent US12084456B2, “Isocarbostyril alkaloids and functionalization thereof” (The Board of Trustees of the University of Illinois, priority 2018, dated 2024).
≈ marks a conversion by molar mass, not a printed value. Like-named read-outs stand apart in the source and are kept apart here.

What was measured:
[1] = system: A549 cells; settings: for anticancer activity / cytotoxicity in words: human lung and colon cancer cell lines (A549 and HCT116); for IC50: read-out: Activity data for compounds: A549
[2] = system: HCT116 cells; test: Cell viability assay (Alamar Blue, 72 h), HCT116; format: cell-based, human; settings: for IC50: read-out: Activity data for compounds: HCT116
[3] = Mouse liver microsome assay; format: in vitro ADME; settings: mouse liver microsomes, 3 h, percentage remaining
Description: A mixture of PBS (pH 7.4), NADPH regenerating system solution A (Corning Life Sciences), and NADPH regenerating system solution B (Corning Life Sciences) was incubated at 37° C. in a shaking incubator for 5 min. Next, compound was added in DMSO (final concentration 50 μM, 0.5% DMSO) before ice-cold mouse liver microsomes (Thermo Fisher, male CD-1 mice, pooled) were added (final protein concentration of 1 mg/mL). An aliquot was immediately removed, quenched with an equal volume of 100 μM internal standard in ice-cold acetonitrile, and centrifuged at 13,000 rcf for 3 min. The supernatant was diluted 1:5 in ddH2O and analyzed by LC-MS. The reactions were incubated at 37° C. in a shaking incubator for 3 h. A second aliquot was removed, quenched and diluted as before and analyzed by LC-MS. The ratio of the areas of analyte:internal standard at 3 hours was compared to the ratio at t0 to determine the percentage of compound remaining. Analysis was performed using a Kinetex® Evo C-18 50 mm column running a gradient from 3%→95% MeCN in water over 9 minutes at 0.4 mL/min. Internal standard=(+)-pancratistatin tetaacetate S4.

[4] = Solubility assay (shake-flask method); format: physicochemical; settings: for increased solubility when compared to natural counterpart: 47 vs narciclasine, 52 vs pancratistatin; for solubility at 24 h: thermodynamic from solid, water, stirred 24 hours, shake-flask, LCMS, read-out: aq. Solubility
Description: A calibration was made for each compound by diluting a 1 mM DMSO solution to 10, 25, 50, 75, and 100 μM and then measuring their relative UV absorbance by LC-MS using a Kinetex© Evo C-18 50 mm column running a gradient from 5%→90% MeCN in water over 4 minutes at 0.4 mL/min.
The aqueous solubility of each compound was measured using the shake-flask method. 1.0 mg of compound was diluted to 40 mM with water then stirred for 24 hours. Each solution was then filtered, diluted 10-fold, and analyzed by LCMS. The relative UV absorbance of each compound was then compared to its calibration curve to quantify its aqueous solubility.

[5] = A549 human lung cancer cells, 72 h, Alamar Blue
[6] = HCT116 human colon cancer cells, 72 h, Alamar Blue
[7] = HCT-116, HCT116 human colon cancer cells, 72 h, Alamar Blue

SMILES	anticancer activity / cytotoxicity in words [1]	IC50 [1]	IC50 ([2]; Homo sapiens, HCT-116, 72 h)	IC50 [1, 5]	IC50 [2, 7]	other results
O=C1N[C@@H]2C(=C[C@H](O)[C@@H](O)[C@H]2O)c2cc3c(c(CO)c21)OCO3 [compound 41, 7-hydroxymethyl lycoricidine]	less potent	> 100 µM	> 100 µM			
N#Cc1c2c(cc3c1C(=O)N[C@@H]1C3=C[C@H](O)[C@@H](O)[C@H]1O)OCO2 [compound 46, 7-cyanolycoricidine]		1.2 µM	0.48 µM			activity compared to lycoricidine (3) in HCT116 cells [2]: increased activity when compared to lycoricidine
COC(=O)c1c2c(cc3c1C(=O)N[C@@H]1C3=C[C@H](O)[C@@H](O)[C@H]1O)OCO2 [compound 42, 7-carboxymethyl lycoricidine]		39 µM	29 µM			
[2H]C1=C2c3cc4c(c(O)c3C(=O)N[C@@]2([2H])[C@]([2H])(O)[C@]([2H])(O)[C@@]1([2H])O)OCO4 [4-d5, (+)-narciclasine 4-d5]	equipotent activity			0.066 µM		greater metabolic stability when compared to narciclasine (4) [3]: ~30%; IC50 [2, 6]: 0.043 µM
O=C1N[C@@H]2C(=C[C@H](O)[C@@H](O)[C@H]2O)c2cc3c(c(N4CCOCC4)c21)OCO3 [compound 51, 7-(4-morpholinyl)lycoricidine]	did not show significant cytotoxicity			39 µM	33 µM	
Nc1c2c(cc3c1C(=O)N[C@@H]1C3=C[C@H](O)[C@@H](O)[C@H]1O)OCO2 [compound 47, 7-aminolycoricidine]		0.38 µM	0.39 µM			increased solubility when compared to natural counterpart [4]: 11 fold; solubility at 24 h [4]: 3740 ± 200 µg/mL (≈ 12.2 mM)
COc1cccc2c1C(=O)c1c(O)c3c(c(O)c1C2=O)C[C@@](O)(C(=O)CO)C[C@@H]3O[C@H]1C[C@H](N)[C@H](O)[C@H](C)O1 [doxorubicin, reference compound]				0.22 µM	0.147 µM	
O=C1N[C@@H]2C(=C[C@H](O)[C@@H](O)[C@H]2O)c2cc3c(c(O)c21)OCO3 [compound 4, (+)-narciclasine, reference compound]				0.056 µM		IC50 [2, 6]: 0.0324 µM
O=C1N[C@H]2[C@H](O)[C@H](O)[C@@H](O)[C@H](O)[C@@H]2c2cc3c(cc21)OCO3 [compound 1, (+)-7-deoxypancratistatin, reference compound]		2.9 µM	1.5 µM			
O=C1N[C@@H]2C(=C[C@H](O)[C@@H](O)[C@H]2O)c2cc3c(c(C(=O)O)c21)OCO3 [compound 43, lycoricidine-7-carboxylic acid]			80 µM	> 100 µM		
O=C(O)Cc1c2c(cc3c1C(=O)N[C@@H]1C3=C[C@H](O)[C@@H](O)[C@H]1O)OCO2 [compound 45, 2-(7-lycoricidinyl)acetic acid]		89 µM	70 µM			
C=CCc1c2c(cc3c1C(=O)N[C@@H]1C3=C[C@H](O)[C@@H](O)[C@H]1O)OCO2 [compound 38, 7-allyl lycoricidine]		> 100 µM	> 100 µM			
CNc1c2c(cc3c1C(=O)N[C@@H]1C3=C[C@H](O)[C@@H](O)[C@H]1O)OCO2 [compound 48, N-methyl-7-aminolycoricidine]	did not show significant cytotoxicity			28 µM	12 µM	
[2H]C1([2H])Oc2cc3c(c(O)c2O1)C(=O)N[C@@H]1C3=C[C@H](O)[C@@H](O)[C@H]1O [4-d2, (+)-narciclasine 4-d2]	equipotent activity			0.07 µM		greater metabolic stability when compared to narciclasine (4) [3]: ~30%; IC50 [2, 6]: 0.04 µM
O=C1N[C@@H]2C(=C[C@H](O)[C@@H](O)[C@H]2O)c2cc3c(c(N4CCCC4)c21)OCO3 [compound 50]	did not show significant cytotoxicity			> 100 µM	> 100 µM	
CCOC(=O)Cc1c2c(cc3c1C(=O)N[C@@H]1C3=C[C@H](O)[C@@H](O)[C@H]1O)OCO2 [compound 44, ethyl 2-(7-lycoricidinyl)acetate]				74 µM	80 µM	
O=C1N[C@@H]2C(=C[C@H](O)[C@@H](O)[C@H]2O)c2cc3c(c(C(=O)c4ccccc4)c21)OCO3 [compound 39, 7-oxophenyl lycoricidine]		44 µM	35 µM			
Nc1c2c(cc3c1C(=O)N[C@H]1[C@H](O)[C@H](O)[C@@H](O)[C@H](O)[C@H]31)OCO2 [compound 52, 7-aminopancratistatin]		9 µM	3.4 µM			increased solubility when compared to natural counterpart [4]: 6 fold; solubility at 24 h [4]: 3460 ± 140 µg/mL (≈ 10.7 mM)
CC(=O)Nc1c2c(cc3c1C(=O)N[C@@H]1C3=C[C@H](O)[C@@H](O)[C@H]1O)OCO2 [compound 49, 7-acetamidelycoricidine]	did not show significant cytotoxicity			> 100 µM	> 100 µM	
O=C1N[C@@H]2C(=C[C@H](O)[C@@H](O)[C@H]2O)c2cc3c(cc21)OCO3 [compound 3, (+)-lycoricidine, reference compound]				0.73 µM	0.54 µM	
COCc1c2c(cc3c1C(=O)N[C@@H]1C3=C[C@H](O)[C@@H](O)[C@H]1O)OCO2 [compound 40, 7-methoxymethyl lycoricidine]		48 µM	50 µM			
O=C1N[C@H]2[C@H](O)[C@H](O)[C@@H](O)[C@H](O)[C@@H]2c2cc3c(c(O)c21)OCO3 [compound 2, (+)-pancratistatin, reference compound]		0.75 µM	0.44 µM			solubility at 24 h [4]: 560 ± 70 µg/mL (≈ 1.72 mM)
